Laboratory results as given in US20240300975A1, “DIMETHYL-SUBSTITUTED THIAZOLOLACTAM COMPOUND AND USE THEREOF” (D3 Bio (Wuxi) Co., Ltd., priority 2021, published 2024).

Legend:
canine plasma albumin = assay: Plasma protein binding (PPB), canine plasma; format: in vitro ADME; conditions: ultracentrifugation, 37° C., 4 h
Procedure: The binding degree of the assay compound to human/mouse/rat/canine/monkey plasma albumin was studied.
• 1) Matrix preparation: on the day of the assay, plasma was thawed in cold water and centrifuged at 3220 rpm for 5 min to remove all clots. The pH of the resulting plasma was measured and adjusted to 7.4±0.1 using 1% phosphoric acid or 1N sodium hydroxide as needed. • 2) Dilution procedure for the assay compound: the assay compound was dissolved in dimethyl sulfoxide (DMSO) to prepare stock solutions with concentrations of 10 mM and 2 mM, respectively. A 40 μM working solution was prepared by diluting 2 μL of stock solution (2 mM) with 98 μL of DMSO. A 400 μM working solution of the control compound was prepared by diluting 10 μL of stock solution with 240 μL of DMSO. The working solution of the compound (5 μL) was mixed well with a blank matrix (995 μL) at a ratio of 1:200 to prepare a loading matrix.
• a) An equal volume of 30 μL of loading matrix (n=2) was transferred to a sample collection plate to prepare a time 0 (TO) sample for residue determination. The sample was immediately matched with the corresponding blank buffer to a final volume of 60 μL, and the volume ratio of plasma to buffer in each well was 1:1. […] The mixture was centrifuged at 4000 rpm for 20 min and 100 μL of supernatant from each sample was analyzed by LC-MS/MS.

ERK2 = ERK2 (Homo sapiens (Human), UniProt P28482); assay: In vitro ERK2 kinase activity assay (33P-ATP, filter-binding); format: biochemical
ERK2, sequence (P28482 whole entry): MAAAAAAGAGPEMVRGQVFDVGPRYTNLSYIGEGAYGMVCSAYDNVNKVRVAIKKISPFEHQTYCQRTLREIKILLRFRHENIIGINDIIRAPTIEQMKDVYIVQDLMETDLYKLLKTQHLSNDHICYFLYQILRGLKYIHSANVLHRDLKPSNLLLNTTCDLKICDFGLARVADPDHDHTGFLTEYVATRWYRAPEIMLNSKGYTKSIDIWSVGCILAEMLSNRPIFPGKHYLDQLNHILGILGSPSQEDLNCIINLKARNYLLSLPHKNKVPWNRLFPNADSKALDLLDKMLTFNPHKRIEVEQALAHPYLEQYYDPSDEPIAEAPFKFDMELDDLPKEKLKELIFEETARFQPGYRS
Procedure: The ability of compounds to inhibit ERK1 and ERK2 kinase activity was measured.
20 mM Hepes (pH 7.5), 10 mM MgCl2, 1 mM ethylenebis(oxyethylenenitrilo)tetraacetic acid (EGTA), 0.02% Brij35, 0.02 mg/mL bovine serum albumin (BSA), 0.1 mM Na3VO4, 2 mM dithiothreitol (DTT), 1% DMSO.
The assay compound was dissolved in 100% DMSO to prepare a stock solution of specific concentration. The compound was serially diluted in DMSO solution using Integra Viaflo Assist smart pipette.
• a) The substrate MBP was prepared in freshly prepared reaction buffer; • b) ERK1 (or ERK2) kinase was added to the above-mentioned MBP solution and mixed gently; • c) The compound dissolved in 100% DMSO was added to the kinase reaction system using ultrasound technology (Echo550; nanoliter range), and the mixture was incubated at room temperature for 20 minutes; • d)^33P-ATP (specific concentration of […]) was added to the reaction system, and the reaction was started at this time; • e) The mixture was incubated at room temperature for 2 hours; • f) The amount of radioactivity was detected by filter-binding method; • g) ERK1 (or ERK2) kinase activity was calculated as the ratio of the remaining kinase activity in the assay sample to the kinase activity of the control group (treated by DMSO).
Curve was fitted using Prism (GraphPad software) and IC50 values were calculated.

HT29 tumor cells = assay: In vitro cell proliferation inhibition (CellTiterGlo); format: cell-based; conditions: Homo sapiens, HT-29
Procedure: The ability of compounds to inhibit the proliferation of HT29 tumor cells was measured.
The assay compound was dissolved in 100% DMSO to prepare 10 mM stock solution.
• a) UV light of a biological safety cabin was turned on, and 30 minutes were counted down; • b) In a 37° C. water bath, RPMI1640 medium and trypsin were preheated; • c) After completion of the UV irradiation, the biological safety cabin was opened. The preheated medium, trypsin and phosphate buffered saline (PBS), etc. were wiped with alcohol and placed in the biological safety cabin; • d) HT29 cells were removed from the incubator, and the old medium was removed in biological safety cabin. 10 ml of PBS was added. […] The culture vessel was shaken horizontally so that the trypsin evenly covered the cells at the bottom, and placed in an incubator for 2 minutes; • f) Cell digestion was stopped with complete medium, and the cell suspension was pipetted to homogeneity and counted; • g) According to the result of cell counting, the density of cell suspension was adjusted to 1500 cells per well, and the cell suspension was seeded at 50 μl per well; • h) The stock solution of compounds was serially diluted in DMSO solution, and compounds were added to cell plate using Tecan; • i) The compound-added cell plate and CellTiterGlo were equilibrated at room temperature, and 25 microliters of CellTiterGlo was then added to each well. […]

Cc1cccc(CN2C(=O)c3nc(-c4nc(Nc5ccnn5C)ncc4C)sc3C2(C)C)n1 [WX001]
Plasma protein binding rate (unbound %) (canine plasma albumin): 4.1% | IC50 (ERK2): 0.49 nM | IC50 (HT29 tumor cells): 21 nM
